Series [1] can be described thus: Reverse phase HPLC retention time (hydrophobicity). Format: physicochemical. Also on record: unit not given beside the values. As to conditions: C18 column (300 Å pore size, 5 μm particle size), linear gradient acetonitrile/water, higher Rt taken as more hydrophobic. From the text:
Materials: LPS of E. coli 0111:B4, FITC-LPS of E. coli 055:B5, acrylamide, NPN (1-N-phenylnaphthylamine) were purchased from Sigma (Saint Louis, MO, USA). All bacterial strains were obtained from the American Type Culture Collection (Manassas, VA, USA). Designed peptides were synthesized commercially by GL Biochem (Shanghai, China) and further purified by a reverse phase HPLC (Waters), using a C18 column (300 Å pore size, 5 μm particle size). The dimeric variants of β-boomerang lipopeptides were treated with 20% DMSO for 18 hours and the oxidized peptides were further purified by HPLC. A linear gradient of acetonitrile/water mixture was used for the purification and fractions eluting with higher purity were collected and freeze-dried.
In addition, incorporation of disulfide bridges in AMPs may stabilize conformations and enhance cationicity and hydrophobicity required for enhanced activity. […] Residue Ile10 was chosen for Cys replacement since this residue is located at the exposed face of the β-strand of the YI12WF structure (Figure 1).

The next series relates to B.subtilis (Lab strain). Description: Antibacterial assay (MIC). As to conditions: 10 mM phosphate buffer pH 6.8, 3 h 37 °C, streaked on Mueller-Hinton agar. It is filed as cell-based. How it is done:
(§1) Antibacterial assay: The minimum inhibitory concentration (MIC) of the designed peptides was determined against four Gram-negative strains (E. coli, P. aeruginosa ATCC 27853, K. pneumoniae ATCC 13883, S. enterica ATCC 14028) and four Gram-positive strains (B. subtilis, S. aureus ATCC 25923, S. pyogenes ATCC 19615 and E. faecalis ATCC 29212). In brief, mid logarithmic phase of overnight grown bacterial cultures were obtained in LB broth and adjusted to OD600 0.2 in 10 mM phosphate buffer, pH 6.8. About 50 μL of these cells were added to equal volume of designed peptides at two-fold dilutions in 96-well sterile polypropylene plates followed by incubation for 3hrs at 37 °C. Aliquots of the above titrated wells were streaked onto Mueller-Hinton agar plates and the concentration at which no visible bacterial growth was observed considered as the MIC value of the peptide.

A further series has as its system E.coli (Lab strain). Description: Antibacterial assay (MIC). Format: cell-based. Conditions: 10 mM phosphate buffer pH 6.8, 3 h 37 °C, streaked on Mueller-Hinton agar, no visible growth. How it is done:
as §1

The subject of the next series is E.faecalis (ATCC 29212). Description: Antibacterial assay (MIC). Format: cell-based. Conditions: 10 mM phosphate buffer pH 6.8, 3 h 37 °C, streaked on Mueller-Hinton agar. How it is done:
as §1

In series [2] the test system is K. pneumoniae (ATCC 13883). Description: Antibacterial assay (MIC). It is filed as cell-based. As to conditions: 10 mM phosphate buffer pH 6.8, 3 h 37 °C, streaked on Mueller-Hinton agar. How it is done:
as §1

Series [3] concerns P.aeruginosa (ATCC 27853). Description: Antibacterial assay (MIC). It is filed as cell-based. As to conditions: 10 mM phosphate buffer pH 6.8, 3 h 37 °C, streaked on Mueller-Hinton agar. How it is done: as §1
The subject of another series is S.aureus (ATCC 25923). Description: Antibacterial assay (MIC). It is filed as cell-based. As to conditions: 10 mM phosphate buffer pH 6.8, 3 h 37 °C, streaked on Mueller-Hinton agar. How it is done: as §1
The next series has as its system S.enterica (ATCC 14028). Description: Antibacterial assay (MIC). Conditions: 10 mM phosphate buffer pH 6.8, 3 h 37 °C, streaked on Mueller-Hinton agar. Format: cell-based. How it is done:
as §1

A further series has as its system S.pyogenes (ATCC 19615). Description: Antibacterial assay (MIC). It is filed as cell-based. As to conditions: 10 mM phosphate buffer pH 6.8, 3 h 37 °C, streaked on Mueller-Hinton agar. How it is done: as §1
A further series concerns red blood cells. Conditions: mouse RBC ~4% (v/v) in PBS pH 7.0, 1 h, OD540, 1% Triton-X = positive control. How it is done: Hemolytic assay: Blood was collected from healthy mice in a tube containing EDTA. Cells with EDTA were centrifuged at 800 g for 10 min, to remove the buffy plasma coat layer, and washed three times in PBS (35 mM phosphate buffer, 150 mM NaCl, pH 7.0). 50 μL of RBC solution was added to equal volume of two-fold dilution of the peptides in 96-well micro titer plates and incubated for one hour. The final erythrocyte concentration estimated to be ~4% (v/v). After one hour, the mixture was centrifuged and the release of hemoglobin in the supernatant was determined spectrophotometrically at OD540. Buffer and 1% Triton-X in the place of peptides used as negative control and positive control, respectively. The percentage of hemolysis was calculated using the following method: Percentage of hemolysis = (OD peptide − OD buffer)/(OD Triton-X-OD buffer) × 100

The next series deals with LPS (endotoxin). Description: LPS neutralization assay (chromogenic LAL kit). It is filed as biochemical. As to conditions: for LPS neutralization: 1.0 μM peptide. How it is done: LPS neutralization assay: LAL chromogenic kit (QCL 100 Cambrex, Walkersville, MD, USA) was used to determine endotoxin neutralization of the designed peptides following protocol of the vendor. LPS in Gram negative bacteria activates a proenzyme in limulus amoebocyte lysate (LAL). This activated enzyme in turn catalytically release a colored product pNA from the colorless substrate Ac-Ile-Glu-Ala-Arg-pNA which is detected spectrophotometrically at OD410. All peptides were dissolved in the pyrogen-free water supplied with the kit and pH was adjusted to 7.0 with 1N HCl or 1N NaOH (which is prepared in pyrogen-free water). The increasing concentrations of the peptides were incubated with three different concentrations of endotoxins, i.e., at 0.4, 0.8 and 1.0 endotoxin units (EU) in a total volume of 50 μL for 30 minutes at 37 °C. About 50 μL of LAL reagent was added to peptide-LPS complex and further incubated for 10 minutes followed by addition of 100 μL substrate. After incubation of six minutes for the reaction, the release of colored product was recorded at OD410. Water in the place of peptides served as negative control (blank) that is considered as 0% inhibition and percentage of LPS neutralization was calculated by: % of LPS neutralization = [(OD blank − OD peptide)/OD blank] × 100

The test system of the next series is E. coli cells. Description: Zeta potential measurements. It is filed as cell-based. Conditions: 4 μM peptide; cells without peptide about −20.0 mV; OD600 0.2. How it is done: Zeta potential measurements: The zeta potential measurements were carried out on a Zetasizer Nano ZS (Malvern Instruments, Worcestershire, UK) equipped with a 633 nm He lasers. Mid-log phase grown bacterial cells were diluted to an OD600 of 0.2 and a basal measurement in the absence of peptides was acquired in disposable zeta cells with gold electrodes. Increasing concentrations of the designed peptides were then added to the cells and the measurements were made. A total of five measurements of 100 runs each were carried out for all dilutions.

Series [4] concerns LPS micelles. Description: Dynamic light scattering of LPS micelles. Also on record: species or system E. coli 0111:B4. As to conditions: DLS, 0.5 μM LPS, LPS:peptide 1:4; LPS alone 814 nm. How it is done: Dynamic light scattering measurements: LPS forms micelles of large sizes, which with the addition of increasing concentration of peptides, dissociates to smaller sizes. DLS measurements were made for 0.5 μM LPS and then with LPS: Peptide ratios of 1:2 and 1:4. The scattering was measured with Dynamic Light Scattering software provided with the instrument (Brookhaven Instruments Corp., Holtsville, NY, USA) and the scattering data was analyzed with CONTIN method.

Series [5] concerns LPS micelles. Description: Isothermal titration calorimetry. It is filed as binding, E. coli 0111:B4. Conditions: ITC; for Ka: 1 mM peptide into 10 μM LPS, 10 mM phosphate buffer pH 7.0, 25 °C, single site binding model; for Kd: LPS micelles, pH 7.0, 25 °C, Kd = 1/Ka. How it is done:
Isothermal titration calorimetry: Binding of designed peptides with LPS micelles was determined using isothermal titration calorimetry in VP-ITC micro calorimeter (Microcal Inc, Northampton, MA, USA). Peptides and LPS samples were dissolved in 10 mM phosphate buffer, pH 7.0 and filtered. LPS at a concentration of 10 μM was loaded into the sample cell and the reference cell was filled with the same buffer. The syringe was filled with 1mM peptide solution. Typically 30 injections of 3.5 μL of the peptides were made into the sample cell at 25 °C. Sample cell was stirred continuously at 300 rpm. Raw data were obtained and analyzed using single site binding model in Microcal Origin 5.0 software. Association constant (Ka) and enthalpy change (ΔH) were directly determined from ITC profiles. Dissociation constant was calculated from Kd = 1/Ka. ΔG and TΔS were estimated from the fundamental equations of thermodynamics, ΔG = −RTlnKa and TΔS = (ΔH − ΔG), respectively.
(In general: In ITC the heat of successive injections is recorded.)

Converted amounts (≈) assume the structure as drawn. Peptide text beside a SMILES is read from it.

Two compounds from article PMC4014704, “β-Boomerang Antimicrobial and Antiendotoxic Peptides: Lipidation and Disulfide Bond Effects on Activity and Structure” (Pharmaceuticals, 2014) can be followed below.

As usually defined, the Kd is the equilibrium constant for the complex coming apart.

Consider `CCCC(=O)N[C@@H](Cc1ccc(O)cc1)C(=O)N[C@H](C(=O)N[C@@H](CC(C)C)C(=O)N[C@@H](Cc1c[nH]c2ccccc12)C(=O)N[C@@H](CCCCN)C(=O)N[C@@H](CCCNC(=N)N)C(=O)N[C@@H](CCCCN)C(=O)N[C@@H](CCCNC(=N)N)C(=O)N[C@@H](CCCCN)C(=O)N[C@@H](Cc1ccccc1)C(=O)N[C@@H](CSSC[C@H](NC(=O)[C@H](Cc1ccccc1)NC(=O)[C@H](CCCCN)NC(=O)[C@H](CCCNC(=N)N)NC(=O)[C@H](CCCCN)NC(=O)[C@H](CCCNC(=N)N)NC(=O)[C@H](CCCCN)NC(=O)[C@H](Cc1c[nH]c2ccccc12)NC(=O)[C@H](CC(C)C)NC(=O)[C@@H](NC(=O)[C@H](Cc1ccc(O)cc1)NC(=O)CCC)C(C)C)C(=O)N[C@@H](Cc1ccccc1)C(=O)N[C@H](C(N)=O)[C@@H](C)CC)C(=O)N[C@@H](Cc1ccccc1)C(=O)N[C@H](C(N)=O)[C@@H](C)CC)C(C)C` [C4YI13C] (HELM PEPTIDE1{[CCCC(=O)[*:2]].Y.V.L.W.K.R.K.R.K.F.C.F.I.[am]}|PEPTIDE2{[CCCC(=O)[*:2]].Y.V.L.W.K.R.K.R.K.F.C.F.I.[am]}$PEPTIDE1,PEPTIDE2,12:R3-12:R3$$$V2.0), for which the “Retention time (Rt)” value in [1] came to 31.62. Also, the “Minimum inhibitory concentration (MIC)” value worked out at 15 µM (≈ 55.7 µg/mL) in the series on B.subtilis (Lab strain); 10 µM (≈ 37.1 µg/mL) with E.coli (Lab strain); 50 µM (≈ 186 µg/mL) with E.faecalis (ATCC 29212); 8 µM (≈ 29.7 µg/mL) in series [2]; 15 µM (≈ 55.7 µg/mL) in series [3]; 50 µM (≈ 186 µg/mL) in the series on S.aureus (ATCC 25923). The “Minimum inhibitory concentration (MIC)” value with S.enterica (ATCC 14028) and in the series on S.pyogenes (ATCC 19615) was 50 µM (≈ 186 µg/mL) in each case. Besides, the “% of hemolysis at 50 μM peptide concentration” value in the series on red blood cells is recorded as 14.1%. Besides, the LPS neutralization in the series with LPS (endotoxin) (0.4 EU endotoxin, 30 min 37 °C, OD410) is ~ 40%; in the series on LPS (endotoxin) (1.0 EU endotoxin) it was 50%. For the same compound, the “Zeta potential of E. coli cells after peptide addition” value in the series on E. coli cells is “about +19.1 mV”. Also, the “Diameter of LPS aggregates” value in the series with LPS micelles [4] is reported as 331 nm. In the series with LPS micelles [5], the Ka was 2.2 µM⁻¹. The compound also gave a dissociation constant (Kd) at LPS micelles [5] of 450 nM.

Consider `CC[C@H](C)[C@H](NC(=O)[C@H](Cc1ccccc1)NC(=O)[C@H](CSSC[C@H](NC(=O)[C@H](Cc1ccccc1)NC(=O)[C@H](CCCCN)NC(=O)[C@H](CCCNC(=N)N)NC(=O)[C@H](CCCCN)NC(=O)[C@H](CCCNC(=N)N)NC(=O)[C@H](CCCCN)NC(=O)[C@H](Cc1c[nH]c2ccccc12)NC(=O)[C@H](CC(C)C)NC(=O)[C@@H](NC(=O)[C@@H](N)Cc1ccc(O)cc1)C(C)C)C(=O)N[C@@H](Cc1ccccc1)C(=O)N[C@H](C(N)=O)[C@@H](C)CC)NC(=O)[C@H](Cc1ccccc1)NC(=O)[C@H](CCCCN)NC(=O)[C@H](CCCNC(=N)N)NC(=O)[C@H](CCCCN)NC(=O)[C@H](CCCNC(=N)N)NC(=O)[C@H](CCCCN)NC(=O)[C@H](Cc1c[nH]c2ccccc12)NC(=O)[C@H](CC(C)C)NC(=O)[C@@H](NC(=O)[C@@H](N)Cc1ccc(O)cc1)C(C)C)C(N)=O` [YI13C] (HELM PEPTIDE1{Y.V.L.W.K.R.K.R.K.F.C.F.I.[am]}|PEPTIDE2{Y.V.L.W.K.R.K.R.K.F.C.F.I.[am]}$PEPTIDE1,PEPTIDE2,11:R3-11:R3$$$V2.0), for which the “Retention time (Rt)” value in series [1] was 27.48. For the same compound, the “Minimum inhibitory concentration (MIC)” value was 20 µM (≈ 71.4 µg/mL) in the series with B.subtilis (Lab strain); 12.5 µM (≈ 44.6 µg/mL) in the series with E.coli (Lab strain); 50 µM (≈ 179 µg/mL) in the series on E.faecalis (ATCC 29212); 25 µM (≈ 89.3 µg/mL) in series [2]; 20 µM (≈ 71.4 µg/mL) in series [3]; 20 µM (≈ 71.4 µg/mL) with S.aureus (ATCC 25923). For the same compound, the “Minimum inhibitory concentration (MIC)” value in the series on S.enterica (ATCC 14028) and with S.pyogenes (ATCC 19615) was 50 µM (≈ 179 µg/mL) in each case. Besides, in the series with red blood cells, the “% of hemolysis at 50 μM peptide concentration” value stood at 21.5%. Also, the “LPS neutralization (in words)” value in the series with LPS (endotoxin) (10 μM peptide concentration) is reported as “neutralization activity equal to acylated analogs”. For the same compound, in the series on LPS micelles [4], the “Diameter of LPS aggregates” value came out at 291 nm. The Ka in the series with LPS micelles [5] is 4.2 µM⁻¹. The same compound returned a dissociation constant Kd on LPS micelles [5] of 230 nM.
